Experimental findings from ChEMBL document CHEMBL4622833, “Bifunctional small molecule-oligonucleotide hybrid as microRNA inhibitor” (Bioorg Med Chem, 2020) are described below.

Activity calls are given as the source filed them. The rule behind the calls is not given here. Numbered stars: 1 amine (or outer) side, 2 acyl side, 3 side chain; on linkers, the order of the positions; unused ones are H or OH. Square brackets hold non-standard residues; d marks the D form. Peptide text beside a SMILES is read from it. * marks the point of attachment. X6 = O=C1Cc2ccc(OCc3cn(N([C@@H](CS)C(=O)[*:2])[*:1])nn3)cc2C(=O)N1O; X3 = O=C1Cc2ccc(OCc3cn(N(CC(=O)[*:2])[*:1])nn3)cc2C(=O)N1O; X4 = C[C@@H](O)[C@@H](C(=O)[*:2])N(n1cc(CN[*:3])nn1)[*:1]; X7 = O=C([C@H](CS)N(n1cc(CCCC(=O)[*:3])nn1)[*:1])[*:2]; X1 = O=C([C@H](CS)N(n1cc(CN[*:3])nn1)[*:1])[*:2]; X5 = C[C@@H](C(=O)[*:2])N(n1cc(CN[*:3])nn1)[*:1]; X8 = O=C(NCCOCCOCCN*)c1ccc2c(c1)C(=O)N(O)C2=O; X2 = O=C1c2ccc(C(=O)*)cc2C(=O)N1O

Assay type in all cases: nucleic-acid assay
Assay [1] deals with Pre-miRNA-29b. As to the kind of experiment: Inhibition of Dicer mediated [32P] pre-miRNA-29b-1 (unknown origin) maturation assessed as cleavage of pre-miRNA at 1 mM after 2.5 hrs by denaturating polyacrylamide gel electrophoresis.
The test system of assay [2] is microRNA 21. As to the kind of experiment: Inhibition of Dicer mediated [32P] pre-miRNA-21 (unknown origin) maturation assessed as cleavage of pre-miRNA at 1000 uM after 2.5 hrs by denaturating polyacrylamide gel electrophoresis.
For assay [3], the system named is microRNA 21. As to the kind of experiment: Binding affinity to [32P]pre-miRNA-21(unknown origin) assessed as reduction in mobility by electrophoretic mobility shift assay.
For assay [4], the system named is microRNA 21. As to the kind of experiment: Inhibition of Dicer mediated [32P] pre-miRNA-21 (unknown origin) maturation assessed as cleavage of pre-miRNA at 10 uM after 2.5 hrs by denaturating polyacrylamide gel electrophoresis.
The target in assay [5] is microRNA 21. Kind of assay: Inhibition of Dicer mediated [32P] pre-miRNA-21 (unknown origin) maturation assessed as cleavage of pre-miRNA after 2.5 hrs by denaturating polyacrylamide gel electrophoresis.
In assay [6] the test system is microRNA 21. As to the kind of experiment: Inhibition of Dicer mediated [32P] pre-miRNA-21 (unknown origin) maturation assessed as cleavage of pre-miRNA at 50 uM after 2.5 hrs by denaturating polyacrylamide gel electrophoresis.
The test system of assay [7] is microRNA 21. Kind of assay: Inhibition of Dicer mediated [32P] pre-miRNA-21 (unknown origin) maturation assessed as cleavage of pre-miRNA at 1 to 100 uM after 2.5 hrs by denaturating polyacrylamide gel electrophoresis.

Consider `C#CCNC(=O)c1ccc2c(c1)C(=O)N(O)C2=O`, for which the inhibition entry in assay [1] and in assay [2] was “inactive” each time.
For the compound `C[C@H](NC(=O)[C@H](CS)NC(=O)[C@H](C)NC(=O)[C@H](C)NC(=O)[C@H](CS)NC(=O)[C@@H](NC(=O)[C@@H](NC(=O)[C@H](C)NC(=O)CNC(=O)[C@H](C)NC(=O)CNC(=O)[C@@H](NC(=O)[C@H](C)NC(=O)[C@H](CS)Nn1cc(CNC(=O)c2ccc3c(c2)C(=O)N(O)C3=O)nn1)[C@@H](C)O)[C@@H](C)O)[C@@H](C)O)C(=O)O` (H-[X1](X2)ATGAGATTCAACA-OH), in assay [3], the result was Active. The inhibition entry in assay [4] and in assay [6] was “Active” throughout. In assay [5], the IC50 was 4.3 µM.
As to `C[C@H](NC(=O)[C@H](CS)NC(=O)[C@H](C)NC(=O)[C@H](C)NC(=O)[C@H](CS)NC(=O)[C@@H](NC(=O)[C@@H](NC(=O)[C@H](C)NC(=O)CNC(=O)[C@H](C)NC(=O)CNn1cc(COc2ccc3c(c2)C(=O)N(O)C(=O)C3)nn1)[C@@H](C)O)[C@@H](C)O)C(=O)O` (H-[X3]AGATTCAACA-OH), in assay [5], the IC50 stood at 0.5 µM and the inhibition result was “Dose-dependent effect”.
For the compound `C[C@H](NC(=O)[C@H](CS)NC(=O)[C@H](C)NC(=O)[C@H](C)NC(=O)[C@H](CS)NC(=O)[C@@H](NC(=O)[C@@H](NC(=O)[C@H](C)NC(=O)CNC(=O)[C@H](C)NC(=O)CNC(=O)[C@@H](Nn1cc(CNC(=O)c2ccc3c(c2)C(=O)N(O)C3=O)nn1)[C@@H](C)O)[C@@H](C)O)[C@@H](C)O)C(=O)O` (H-[X4](X2)GAGATTCAACA-OH), in assay [6], the inhibition result was “Active”.
`C[C@H](NC(=O)[C@H](CS)NC(=O)[C@H](C)NC(=O)[C@H](C)NC(=O)[C@H](CS)NC(=O)[C@@H](NC(=O)[C@@H](NC(=O)[C@H](C)NC(=O)CNC(=O)[C@H](C)Nn1cc(CNC(=O)c2ccc3c(c2)C(=O)N(O)C3=O)nn1)[C@@H](C)O)[C@@H](C)O)C(=O)O` (H-[X5](X2)GATTCAACA-OH): the inhibition result in assay [6] was “Active”.
For `C[C@H](NC(=O)[C@H](CS)NC(=O)[C@H](C)NC(=O)[C@H](C)NC(=O)[C@H](CS)NC(=O)[C@@H](NC(=O)[C@@H](NC(=O)[C@H](C)NC(=O)CNC(=O)[C@H](C)NC(=O)CNC(=O)[C@@H](NC(=O)[C@H](C)NC(=O)[C@H](CS)Nn1cc(COc2ccc3c(c2)C(=O)N(O)C(=O)C3)nn1)[C@@H](C)O)[C@@H](C)O)[C@@H](C)O)C(=O)O` (H-[X6]ATGAGATTCAACA-OH), in assay [5], the IC50 was determined as 3.3 µM.
Turning to `C[C@H](NC(=O)[C@H](CS)NC(=O)[C@H](C)NC(=O)[C@H](C)NC(=O)[C@H](CS)NC(=O)[C@@H](NC(=O)[C@@H](NC(=O)[C@H](C)NC(=O)CNC(=O)[C@H](C)NC(=O)CNC(=O)[C@@H](NC(=O)[C@H](C)NC(=O)[C@H](CS)Nn1cc(CCCC(=O)NCCOCCOCCNC(=O)c2ccc3c(c2)C(=O)N(O)C3=O)nn1)[C@@H](C)O)[C@@H](C)O)[C@@H](C)O)C(=O)O` (H-[X7](X8)ATGAGATTCAACA-OH), the inhibition result in assay [7] is “inactive”.
